Assay results: PubChem BioAssay (NCI)
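Five concentrations, 48 hours, 96-well plates. TGI: total growth inhibition.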

Tests used:
Assay in all cases: NCI anticancer screen, dose series, 48 h
[1] = system: DU-145 prostate
[2] = system: SNB-19 CNS
[3] = system: MDA-MB-231 breast
[4] = system: TK-10 renal
[5] = system: OVCAR-4 ovarian
[6] = system: HCC-2998 colon
[7] = system: HOP-92 NSCLC
[8] = system: KM12 colon
[9] = system: SN12C renal
[10] = system: NCI-H23 lung
[11] = system: NCI-H226 lung
[12] = system: M14 melanoma
[13] = system: OVCAR-8 ovarian
[14] = system: EKVX NSCLC
[15] = system: RPMI-8226 leukemia
[16] = system: SK-MEL-28 melanoma
[17] = system: 786-0 renal
[18] = system: OVCAR-3 ovarian
[19] = system: HL-60(TB) leukemia
[20] = system: COLO 205 colon
[21] = system: SK-OV-3 ovarian
[22] = system: NCI-H522 lung
[23] = system: ACHN renal
[24] = system: BT-549 breast
[25] = system: UACC-62 melanoma
[26] = system: SF-295 CNS
[27] = system: SF-539 CNS
[28] = system: CCRF-CEM leukemia
[29] = system: HOP-62 NSCLC
[30] = system: SK-MEL-5 melanoma
[31] = system: SNB-75 CNS
[32] = system: LOX IMVI melanoma
[33] = system: HS 578T breast
[34] = system: MDA-N
[35] = system: HCT-116 colon
[36] = system: MDA-MB-435
[37] = system: OVCAR-5 ovarian
[38] = system: UO-31 renal
[39] = system: K-562 leukemia
[40] = system: SK-MEL-2 melanoma
[41] = system: T-47D breast
[42] = system: HCT-15 colon
[43] = system: UACC-257 melanoma
[44] = system: SF-268 CNS
[45] = system: PC-3 prostate
[46] = system: MALME-3M melanoma
[47] = system: NCI/ADR-RES ovarian
[48] = system: U251 CNS
[49] = system: HT29 colon
[50] = system: IGROV1 ovarian
[51] = system: MCF7 breast
[52] = system: RXF 393 renal
[53] = system: SW-620 colon
[54] = system: NCI-H460 lung
[55] = system: A498 renal
[56] = system: A549 NSCLC
[57] = system: CAKI-1 renal
[58] = system: MOLT-4 leukemia
[59] = system: SR leukemia

COc1cnnc2c(C)c(-c3ccccc3)nn12
TGI [1]: > 100 µM
TGI [2]: > 100 µM
TGI [3]: > 100 µM
TGI [4]: > 100 µM
TGI [5]: > 100 µM
TGI [6]: > 100 µM
TGI [7]: > 100 µM
TGI [8]: > 100 µM
TGI [9]: > 100 µM
TGI [10]: > 100 µM
TGI [11]: > 100 µM
TGI [12]: > 100 µM
TGI [13]: > 100 µM
TGI [14]: > 100 µM
TGI [15]: > 100 µM
TGI [16]: > 100 µM
TGI [17]: > 100 µM
TGI [18]: > 100 µM
TGI [19]: > 100 µM
TGI [20]: > 100 µM
TGI [21]: > 100 µM
TGI [22]: > 100 µM
TGI [23]: > 100 µM
TGI [24]: > 100 µM
TGI [25]: > 100 µM
TGI [26]: > 100 µM
TGI [27]: > 100 µM
TGI [28]: > 100 µM
TGI [29]: > 100 µM
TGI [30]: > 100 µM
TGI [31]: > 100 µM
TGI [32]: > 100 µM
TGI [33]: > 100 µM
TGI [34]: > 100 µM
TGI [35]: > 100 µM
TGI [36]: > 100 µM
TGI [37]: > 100 µM
TGI [38]: > 100 µM
TGI [39]: > 100 µM
TGI [40]: > 100 µM
TGI [41]: > 100 µM
TGI [42]: > 100 µM
TGI [43]: > 100 µM
TGI [44]: > 100 µM
TGI [45]: > 100 µM
TGI [46]: > 100 µM
TGI [47]: > 100 µM
TGI [48]: > 100 µM
TGI [49]: > 100 µM
TGI [50]: > 100 µM
TGI [51]: > 100 µM
TGI [52]: > 100 µM
TGI [53]: > 100 µM
TGI [54]: > 100 µM
TGI [55]: > 100 µM
TGI [56]: > 100 µM
TGI [57]: > 100 µM
TGI [58]: > 100 µM

Cc1[nH]c(=O)[nH]c(=O)c1C(=O)N(CCO)Cc1ccccc1
TGI [1]: > 100 µM
TGI [2]: > 100 µM
TGI [3]: > 100 µM
TGI [4]: > 100 µM
TGI [5]: 99.7 µM
TGI [6]: > 100 µM
TGI [7]: > 100 µM
TGI [8]: > 100 µM
TGI [9]: > 100 µM
TGI [10]: > 100 µM
TGI [11]: 43.9 µM
TGI [12]: > 100 µM
TGI [14]: > 100 µM
TGI [15]: > 100 µM
TGI [16]: > 100 µM
TGI [18]: > 100 µM
TGI [19]: > 100 µM
TGI [20]: 45.7 µM
TGI [21]: > 100 µM
TGI [22]: > 100 µM
TGI [23]: > 100 µM
TGI [24]: > 100 µM
TGI [25]: > 100 µM
TGI [26]: > 100 µM
TGI [27]: > 100 µM
TGI [28]: > 100 µM
TGI [29]: > 100 µM
TGI [32]: > 100 µM
TGI [33]: 41.9 µM
TGI [34]: > 100 µM
TGI [35]: > 100 µM
TGI [36]: > 100 µM
TGI [37]: > 100 µM
TGI [38]: > 100 µM
TGI [39]: > 100 µM
TGI [40]: > 100 µM
TGI [41]: > 100 µM
TGI [42]: > 100 µM
TGI [43]: > 100 µM
TGI [44]: > 100 µM
TGI [45]: 94.8 µM
TGI [46]: > 100 µM
TGI [48]: > 100 µM
TGI [49]: > 100 µM
TGI [50]: > 100 µM
TGI [51]: > 100 µM
TGI [52]: 83.6 µM
TGI [59]: > 100 µM
TGI [53]: > 100 µM
TGI [54]: > 100 µM
TGI [55]: > 100 µM
TGI [58]: > 100 µM

C/C(=N\NC(=O)N/N=C(\C)c1ccccn1)c1ccccn1
TGI [1]: > 100 µM
TGI [2]: > 100 µM
TGI [5]: > 100 µM
TGI [6]: > 100 µM
TGI [7]: > 100 µM
TGI [8]: > 100 µM
TGI [9]: > 100 µM
TGI [11]: > 100 µM
TGI [12]: > 100 µM
TGI [13]: > 100 µM
TGI [14]: > 100 µM
TGI [15]: > 100 µM
TGI [16]: > 100 µM
TGI [17]: > 51.5 µM
TGI [18]: > 100 µM
TGI [19]: > 100 µM
TGI [20]: > 100 µM
TGI [21]: > 100 µM
TGI [22]: > 100 µM
TGI [23]: > 100 µM
TGI [24]: 18.2 µM
TGI [25]: > 100 µM
TGI [26]: > 100 µM
TGI [27]: 3.04 µM
TGI [28]: > 100 µM
TGI [29]: > 100 µM
TGI [30]: > 47.3 µM
TGI [31]: > 100 µM
TGI [32]: > 100 µM
TGI [33]: > 100 µM
TGI [34]: > 100 µM
TGI [35]: > 100 µM
TGI [36]: > 100 µM
TGI [37]: > 100 µM
TGI [38]: > 100 µM
TGI [40]: > 100 µM
TGI [41]: > 100 µM
TGI [42]: > 100 µM
TGI [43]: > 100 µM
TGI [44]: > 83.9 µM
TGI [45]: > 100 µM
TGI [46]: > 100 µM
TGI [47]: 93.6 µM
TGI [48]: > 100 µM
TGI [49]: > 100 µM
TGI [50]: > 100 µM
TGI [51]: > 100 µM
TGI [52]: > 100 µM
TGI [59]: > 100 µM
TGI [53]: > 100 µM
TGI [54]: > 100 µM
TGI [55]: > 100 µM
TGI [56]: > 100 µM
TGI [57]: > 100 µM
TGI [58]: > 100 µM

Cc1ccsc1/C=N/Nc1ccccn1
TGI [1]: > 100 µM
TGI [2]: > 100 µM
TGI [3]: > 100 µM
TGI [4]: > 100 µM
TGI [5]: > 100 µM
TGI [6]: > 100 µM
TGI [7]: > 100 µM
TGI [8]: > 100 µM
TGI [9]: > 100 µM
TGI [10]: > 100 µM
TGI [11]: > 100 µM
TGI [12]: > 100 µM
TGI [13]: > 100 µM
TGI [14]: 96.5 µM
TGI [15]: 56.6 µM
TGI [16]: > 100 µM
TGI [17]: > 100 µM
TGI [18]: > 100 µM
TGI [20]: > 100 µM
TGI [21]: > 100 µM
TGI [23]: > 100 µM
TGI [24]: > 100 µM
TGI [25]: > 100 µM
TGI [26]: > 100 µM
TGI [28]: > 100 µM
TGI [29]: > 100 µM
TGI [30]: 54.4 µM
TGI [31]: > 100 µM
TGI [32]: > 100 µM
TGI [33]: > 100 µM
TGI [34]: > 100 µM
TGI [35]: > 100 µM
TGI [36]: > 100 µM
TGI [37]: > 100 µM
TGI [38]: > 100 µM
TGI [39]: > 100 µM
TGI [40]: > 100 µM
TGI [41]: > 100 µM
TGI [42]: > 100 µM
TGI [43]: > 100 µM
TGI [44]: > 100 µM
TGI [45]: > 100 µM
TGI [46]: > 100 µM
TGI [47]: > 100 µM
TGI [48]: > 100 µM
TGI [49]: > 100 µM
TGI [50]: > 100 µM
TGI [51]: > 100 µM
TGI [52]: > 100 µM
TGI [53]: > 100 µM
TGI [55]: > 100 µM
TGI [56]: > 100 µM
TGI [57]: > 100 µM
TGI [58]: 73.9 µM
